From US20240124410A1, “SMALL MOLECULES AND THEIR USE AS MALT1 INHIBITORS” (University of Pittsburgh - Of the Commonwealth System of …, priority 2021, published 2024)

What was measured:
ADRB1 = target: T1, ADRB1 (Homo sapiens, UniProt P08588); experiment: Eurofins SAFETYscan 78-target panel, off-target effects, ADRB1; assay type: biochemical; details: antagonist / blocker / inhibitor mode
T1 construct: Eurofins
Experimental: (§1) FIG. 9. Table summarizing the Eurofins analysis of potential off-target effects of M1i-124. […] values above 10 μM are generally considered to be acceptable. FIG. 10. Representative hematoxylin and eosin (H&E) staining of organ sections (lung, heart, kidney, liver and adrenal) from control and M1i-124 treated mice described in FIG. 6.
(§2) Studies were performed using the services of Touchstone Biosciences and Eurofins Pharma Discovery Services. […] All blood samples (30-50 ul per sample) were taken via tail vein at 5, 15, and 30 minutes, and 1, 2, 4, 6, 8, and 24 hours after dosing. Blood samples are collected in Greiner MiniCollect K2 EDTA tubes, placed on ice, and within 30 minutes, centrifuged at 15,000 g for 5 minutes to obtain plasma samples. All plasma samples are stored at −70° C. until analysis. Plasma samples were prepared for analysis by LC-MS/MS, and key PK parameters, including terminal half-life (t 112), initial plasma concentration (C0), area under the plasma concentration vs. time curve (AUC), volume of distribution at steady-state (Vss), total plasma clearance (CLp), and mean residence time (MRT), were measured.
(§3) Assay details are available through Eurofins.

CHRM2 = target: T2, CHRM2 (Homo sapiens, UniProt P08172); experiment: Eurofins SAFETYscan 78-target panel, off-target effects, CHRM2; assay type: biochemical; details: antagonist / blocker / inhibitor mode
T2 construct: Eurofins
T2 sequence (P08172 1-466): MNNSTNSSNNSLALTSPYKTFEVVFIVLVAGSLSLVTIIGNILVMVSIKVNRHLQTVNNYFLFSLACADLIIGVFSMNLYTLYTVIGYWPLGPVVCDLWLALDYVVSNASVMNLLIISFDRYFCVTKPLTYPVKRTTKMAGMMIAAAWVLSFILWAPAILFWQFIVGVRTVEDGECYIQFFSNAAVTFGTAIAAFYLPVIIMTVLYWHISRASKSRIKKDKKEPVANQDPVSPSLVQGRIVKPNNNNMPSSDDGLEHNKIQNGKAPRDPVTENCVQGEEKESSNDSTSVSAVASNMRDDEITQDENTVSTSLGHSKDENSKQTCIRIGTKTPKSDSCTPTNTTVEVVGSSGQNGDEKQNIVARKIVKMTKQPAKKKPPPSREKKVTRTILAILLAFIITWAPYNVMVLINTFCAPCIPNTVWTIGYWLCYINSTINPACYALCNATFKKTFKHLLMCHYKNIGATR
Experimental: as §1, §2, §3

CNR2 = target: T3, CNR2 (Homo sapiens, UniProt P34972); experiment: Eurofins SAFETYscan 78-target panel, off-target effects, CNR2; assay type: biochemical; details: antagonist / blocker / inhibitor mode
T3 construct: Eurofins
Experimental: as §1, §2, §3

KvLQT1/minK = target: T4, KvLQT1/minK (Homo sapiens, UniProt P15382+P51787); experiment: Eurofins SAFETYscan 78-target panel, off-target effects, KvLQT1/minK; assay type: biochemical; details: antagonist / blocker / inhibitor mode
T4 construct: Eurofins
Experimental: as §1, §2, §3

[1] = test system: MALT1 proteolytic cleavage of RelB and N4BP1; experiment: RelB and N4BP1 cleavage assay in Jurkat T cells; assay type: cell-based; details: 20 hours pretreatment, MG132, PMA/iono stimulation
OCI-Ly3 ABC-DLBCL cells = experiment: Cell proliferation (cell count, trypan blue exclusion), OCI-Ly3; assay type: cell-based; details: OCI-Ly3, single dose of 1 μM, 12 days
Excerpt: Cell number was counted using the trypan blue dye exclusion method with Vi-CELL cell viability analyzer (Beckman Coulter) at days 7, 10, and 12 of treatment with compounds. Cell proliferation was specifically evaluated using the CellTrace Violet reagent (ThermoFisher Cat #C34571) which undergoes dilution with each round of cell division. 1.5×10^6 cells were washed twice in PBS and resuspended in 2 mls of PBS.

BCL10-MALT1 interaction = target: T5, BCL10-MALT1 interaction (Homo sapiens, UniProt Q9UDY8); experiment: ELISA-based protein-protein interaction assay; assay type: binding; parameters: GST-tagged recombinant human full-length MALT1 protein (Novus Biologicals Cat #H00010892-P01); purchased Novus Biologicals H00010892-P01
T5 sequence (Q9UDY8 1-824): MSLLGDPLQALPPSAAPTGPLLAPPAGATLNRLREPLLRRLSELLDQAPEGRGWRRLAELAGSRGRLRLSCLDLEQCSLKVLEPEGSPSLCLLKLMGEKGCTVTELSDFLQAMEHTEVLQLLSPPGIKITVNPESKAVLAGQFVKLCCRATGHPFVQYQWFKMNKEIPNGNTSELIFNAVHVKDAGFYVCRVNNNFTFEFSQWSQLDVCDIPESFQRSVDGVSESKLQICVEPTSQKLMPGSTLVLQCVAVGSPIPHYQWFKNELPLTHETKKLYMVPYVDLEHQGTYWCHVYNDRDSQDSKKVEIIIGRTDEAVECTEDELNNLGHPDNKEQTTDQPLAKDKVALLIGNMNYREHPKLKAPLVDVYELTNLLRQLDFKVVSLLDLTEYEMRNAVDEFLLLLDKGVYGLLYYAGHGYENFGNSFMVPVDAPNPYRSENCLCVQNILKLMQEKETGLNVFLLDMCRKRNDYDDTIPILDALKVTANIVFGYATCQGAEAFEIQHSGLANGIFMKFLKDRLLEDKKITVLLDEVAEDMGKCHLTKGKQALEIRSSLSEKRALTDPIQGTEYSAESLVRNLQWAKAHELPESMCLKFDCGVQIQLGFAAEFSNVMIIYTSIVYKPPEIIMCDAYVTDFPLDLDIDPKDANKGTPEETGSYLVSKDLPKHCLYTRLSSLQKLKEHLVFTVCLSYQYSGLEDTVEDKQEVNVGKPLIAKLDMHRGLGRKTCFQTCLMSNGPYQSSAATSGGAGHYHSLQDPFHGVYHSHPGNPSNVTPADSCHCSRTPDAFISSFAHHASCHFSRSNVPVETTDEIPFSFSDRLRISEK
Experimental: On a high-binding 96-well ELISA microplate (Greiner Cat #655061), 100 ng of His-tagged recombinant human full-length Bcl10 protein (ProteinTech Cat #Ag12162) in 100 ul PBS was allowed to adhere overnight in 4° C. The plate was blocked with 5% BSA in PBS for 1 hour at room temperature. After washing twice with PBS-T, a mixture of 100 ng of GST-tagged recombinant human full-length MALT1 protein (Novus Biologicals Cat #H00010892-P01), +/−compound that was preincubated for 1 hour in 100 ul PBS, was added to the plate for 1 hour at room temperature. After washing three times with PBS-T, anti-MALT1 antibody in 5% BSA in PBS was added at 1:1000 dilution for 1 hour at room temperature. After washing three times with PBS-T, HRP-conjugated secondary antibody in 5% BSA in PBS was added at 1:5000 dilution for 1 hour at room temperature. After washing three times with PBS-T, 100 ul of TMB was added for 5 minutes, and 100 ul of 2 M sulfuric acid was added to stop the reaction. The plate was read at 450 nm using a spectrophotometer (Molecular Devices SpectraMax i3).

T1 sequence (P08588 whole entry): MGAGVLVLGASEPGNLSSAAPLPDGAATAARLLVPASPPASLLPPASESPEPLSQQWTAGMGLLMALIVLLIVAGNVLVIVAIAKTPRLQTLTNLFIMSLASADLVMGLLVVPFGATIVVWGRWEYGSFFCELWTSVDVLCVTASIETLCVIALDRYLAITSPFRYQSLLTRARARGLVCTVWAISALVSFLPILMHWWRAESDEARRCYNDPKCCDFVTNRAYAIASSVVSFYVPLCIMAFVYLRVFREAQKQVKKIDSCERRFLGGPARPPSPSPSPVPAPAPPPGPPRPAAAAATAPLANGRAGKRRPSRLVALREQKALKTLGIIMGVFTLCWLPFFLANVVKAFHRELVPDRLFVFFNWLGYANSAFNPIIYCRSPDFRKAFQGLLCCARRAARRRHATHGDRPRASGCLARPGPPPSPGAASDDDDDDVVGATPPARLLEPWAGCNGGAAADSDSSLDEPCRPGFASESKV
T3 sequence (P34972 whole entry): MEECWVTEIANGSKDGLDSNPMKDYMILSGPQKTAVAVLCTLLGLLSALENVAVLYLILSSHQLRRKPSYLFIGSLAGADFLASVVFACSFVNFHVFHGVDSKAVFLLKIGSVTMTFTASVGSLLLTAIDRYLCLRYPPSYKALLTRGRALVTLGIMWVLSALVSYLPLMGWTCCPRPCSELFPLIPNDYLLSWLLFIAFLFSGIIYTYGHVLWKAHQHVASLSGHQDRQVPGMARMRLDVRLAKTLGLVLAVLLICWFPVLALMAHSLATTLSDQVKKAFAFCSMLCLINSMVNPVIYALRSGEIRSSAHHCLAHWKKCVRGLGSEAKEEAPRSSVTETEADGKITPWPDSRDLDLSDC

Structure (SMILES)	IC50 (ADRB1) [nM]	IC50 (CHRM2) [nM]	IC50 (CNR2) [µM]	IC50 (KvLQT1/minK) [nM]	MALT1 proteolytic cleavage of N4BP1 (ratio cleaved/full-length) [1]	MALT1 proteolytic cleavage of RelB (ratio cleaved/full-length) [1]	Proliferation (OCI-Ly3 ABC-DLBCL cells)	ELISA IC50 compared with parent compound M1i-124 (BCL10-MALT1 interaction)	Disruption of the BCL10-MALT1 interaction by ELISA in the presence of tween (BCL10-MALT1 interaction; 0.005% tween)
O=S(=O)(NCc1ccc2c(c1)OCO2)c1ccc(Cc2ccc(S(=O)(=O)NCc3ccc4c(c3)OCO4)cc2)cc1 [M1i-124]	800	1200	9.9	1800	–	–	–	–	–
COc1ccc(CNS(=O)(=O)c2ccc(Cc3ccc(S(=O)(=O)NCc4ccc(OC)cc4)cc3)cc2)cc1 [M1i-124d1]	–	–	–	–	inhibit	inhibit	inhibit the proliferation	lower IC50 as compared to parent compound	retain the ability to disrupt the BCL10-MALT1 interaction
